From paper PMC6222614, “Disubstituted 4-Chloro-3-nitrophenylthiourea Derivatives: Antimicrobial and Cytotoxic Studies” (Molecules : A Journal of Synthetic Chemistry and Natural …, 2018)

Assays:
[1] = test system: CCRF-CEM; assay: Antiproliferative assay (MTT); type: cell-based, human; settings: concentration reducing cell proliferation by 50%, 96 h, mean of three determinations
Description: (§1) Cell lines derived from human hematological tumors were: CD4+ human T-cells containing an integrated HTLV-1 genome (MT-4); CD4+ human acute T-lymphoblastic leukemia (CCRF-CEM); human splenic B-lymphoblastoid cells (WIL-2NS); human acute B-lymphoblastic leukemia (CCRF-SB). Cells were seeded at an initial density of 1 × 10^5 cells/mL in 96 well plates in RPMI-1640 medium supplemented with 10% fetal calf serum (FCS), 100 units/mL penicillin G and 100 μg/mL streptomycin.
(§2) Cell lines derived from human solid tumors were: Skin melanoma (SK-MEL-28); prostate carcinoma (DU-145). Normal tissues foreskin fibroblasts (CRL-7065) were also used. Cells were seeded at 1 × 10^5 cells/mL in 96 well plates in specific media supplemented with 10% FCS and antibiotics, as above. Cell cultures were then incubated at 37 °C in a humidified, 5% CO2 atmosphere in the absence or presence of serial dilutions of test compounds. Cell viability was determined after 96 h at 37 °C by the MTT method.

[2] = test system: CCRF-SB; assay: Antiproliferative assay (MTT); type: cell-based, human; settings: concentration reducing cell proliferation by 50%, 96 h, mean of three determinations
Description: as §1, §2

[3] = test system: WIL-2NS; assay: Antiproliferative assay (MTT); type: cell-based, human; settings: concentration reducing cell proliferation by 50%, 96 h, mean of three determinations
Description: as §1, §2

[4] = test system: MT-4; assay: Antiproliferative assay (MTT); type: cell-based, human; settings: concentration reducing cell proliferation by 50%, 96 h, mean of three determinations
Description: as §1, §2

[5] = test system: SK-MEL-28; assay: Antiproliferative assay (MTT); type: cell-based, human; settings: skin melanoma, concentration reducing cell proliferation by 50%, 96 h
Description: as §2

[6] = test system: DU145; assay: Antiproliferative assay (MTT); type: cell-based, human; settings: prostate carcinoma, concentration reducing cell proliferation by 50%, 96 h
Description: as §2

[7] = test system: CRL7065; assay: Antiproliferative assay (MTT), normal cell line; type: cell-based, human; settings: normal foreskin fibroblasts, concentration reducing cell proliferation by 50%, 96 h
Description: as §2

[8] = test system: HIV-1 IIIB; assay: Anti-HIV-1 activity: protection of MT-4 cells from virus-induced cytopathogenicity (MTT); type: cell-based, Human Immunodeficiency Virus type-1; settings: 50% protection of MT-4 cells from HIV-1 induced cytopathogenicity, MTT, 4-day incubation; read-out: HIV-1IIIB EC50
Excerpt: (§3) Cell line supporting the multiplication of Human Immunodeficiency Virus type-1 (HIV-1) was the CD4+ human T-cells, derived from human hematological tumors, containing an integrated HTLV-1 genome (MT-4). Cells were purchased from American Type Culture Collection (ATCC). Human Immunodeficiency Virus type-1 (HIV-1) IIIB laboratory strain was obtained from the supernatant of the persistently infected H9/IIIB cells (NIH 1983).
The activity of compounds against HIV-1 was based on inhibition of virus-induced cytopathogenicity in MT-4 cell acutely infected with a multiplicity of infection (m.o.i.) of 0.01. Briefly, 50 μL of RPMI containing 1 × 10^4 MT-4 cells were added to each well of flat-bottom microtiter trays, containing 50 μL of RPMI without or with serial dilutions of test compounds. Then, 20 μL of a HIV-1 suspension containing 100 CCID50 were added. After a 4-day incubation at 37 °C, cell viability was determined by the MTT method.

[9] = test system: MT-4 cells; assay: Cytotoxicity against mock-infected MT-4 cells (MTT); type: cell-based, human; settings: concentration reducing viability of mock-infected MT-4 cells by 50%, 96 h
Description: as §3
Exponentially growing MT-4 cells were seeded at an initial density of 1 × 10^5 cells/mL in 96-well plates in RPMI-1640 medium, supplemented with 10% fetal bovine serum (FBS), 100 units/mL penicillin G and 100 μg/mL streptomycin. Cell cultures were then incubated at 37 °C in a humidified, 5% CO2 atmosphere, in the absence or presence of serial dilutions of tested compounds. Cell viability was determined after 96 h at 37 °C by the 3-(4,5-dimethylthiazol-2-yl)-2,5-diphenyl-tetrazolium bromide (MTT) method.

Row | EC50 [8] [µM] | SMILES | CC50 [1] [µM] | CC50 [2] [µM] | CC50 [3] [µM] | CC50 [4] [µM] | CC50 [5] [µM] | CC50 [6] [µM] | CC50 [7] [µM] | CC50 [9] [µM]
1 |  | CC[C@@]1(O)C(=O)OCc2c1cc1n(c2=O)Cc2cc3ccccc3nc2-1 [Camptotecin, reference compound] | 0.003 | 0.004 | 0.005 | 0.004 | 0.07 | 0.08 | 0.3 | 
2 | > 8.8 | O=[N+]([O-])c1cc(NC(=S)Nc2ccccc2Cl)ccc1Cl [Compound 1] | 13 | 14 | 14 | 8.8 | 8.7 | 7.6 | 18 | 8.8
3 | > 7 | O=[N+]([O-])c1cc(NC(=S)Nc2cccc(Cl)c2)ccc1Cl [Compound 2] |  |  |  |  |  |  |  | 7
4 | > 7 | O=[N+]([O-])c1cc(NC(=S)Nc2ccc(Cl)cc2)ccc1Cl [Compound 3] |  |  |  |  |  |  |  | 7
5 |  | O=[N+]([O-])c1cc(NC(=S)Nc2ccccc2Br)ccc1Cl [Compound 4] | 22 | 22 | 30 | 9.6 | 15 | 8 | 20 | 9.6
6 | > 8 | O=[N+]([O-])c1cc(NC(=S)Nc2cccc(Br)c2)ccc1Cl [Compound 5] |  |  |  |  |  |  |  | 8
7 | > 6.6 | O=[N+]([O-])c1cc(NC(=S)Nc2ccc(Br)cc2)ccc1Cl [Compound 6] | 6 | 8 | 7 | 6.6 | 6 | 6 | 30 | 6.6
8 | > 13 | O=[N+]([O-])c1cc(NC(=S)Nc2ccccc2F)ccc1Cl [Compound 7] |  |  |  |  |  |  |  | 13
9 | > 9 | O=[N+]([O-])c1cc(NC(=S)Nc2cccc(F)c2)ccc1Cl [Compound 8] |  |  |  |  |  |  |  | 9
10 | > 7 | O=[N+]([O-])c1cc(NC(=S)Nc2ccc(F)cc2)ccc1Cl [Compound 9] | 9.1 | 9.4 | 11 | 7 | 20 | 8.4 | 22 | 7
11 | > 7.3 | O=[N+]([O-])c1cc(NC(=S)Nc2ccc(F)c(Cl)c2)ccc1Cl [Compound 10] | 5 | 8.8 | 7 | 7.3 | 6.6 | 6.5 | 16 | 7.3
12 | > 8 | O=[N+]([O-])c1cc(NC(=S)Nc2ccc(Cl)cc2Cl)ccc1Cl [Compound 12] |  |  |  |  |  |  |  | 8
13 | > 8.2 | Cc1ccc(Cl)cc1NC(=S)Nc1ccc(Cl)c([N+](=O)[O-])c1 [Compound 14] | 9.4 | 9.8 | 10 | 8.2 | 9 | 7.8 | 18 | 8.2
14 | > 8 | O=[N+]([O-])c1cc(NC(=S)Nc2cccc(C(F)(F)F)c2)ccc1Cl [Compound 15] |  |  |  |  |  |  |  | 8
15 | > 7 | O=[N+]([O-])c1cc(NC(=S)Nc2ccc(C(F)(F)F)cc2)ccc1Cl [Compound 16] |  |  |  |  |  |  |  | 7
16 | > 7.8 | O=[N+]([O-])c1cc(NC(=S)Nc2ccc(I)cc2)ccc1Cl [Compound 17] | 6 | 8.3 | 7 | 7.8 | 6 | 11 | 30 | 7.8
17 | > 7 | O=[N+]([O-])c1ccc(NC(=S)Nc2ccc(Cl)c([N+](=O)[O-])c2)cc1 [Compound 18] |  |  |  |  |  |  |  | 7
18 | > 8.2 | N#Cc1ccc(NC(=S)Nc2ccc(Cl)c([N+](=O)[O-])c2)cc1 [Compound 19] | 9.1 | 9.2 | 10 | 8.2 | 9 | 8 | 20 | 8.2
19 | > 16.7 | CC(NC(=S)Nc1ccc(Cl)c([N+](=O)[O-])c1)c1ccccc1 (centres unmarked) [Compound 26] |  |  |  |  |  |  |  | 16.7
